The values below come from ChEMBL document CHEMBL3044611, “Synthesis of novel Hantzsch dihydropyridines and Biginelli dihydropyrimidines of biological interest: a 3D-QSAR study on their cytotoxicity” (Med Chem Res, 2010).

Values after ≈ are worked out from the molar mass of the structure shown. Active and inactive are the calls of the source. The calls are words filed in the database; no cut-off is given here.

Data set [1] can be described thus: (§1) Cytotoxicity against Chlorocebus aethiops (African green monkey) Vero cells assessed as cell viability after 3 days by SRB assay. The data set is classed as cell-based. The settings on record: chlorocebus sabaeus, Vero cells.
A further data set deals with Vero. Described as §1. Type of data set: cell-based. Particulars: chlorocebus sabaeus, vero, 72 h.
A further data set has as its system Bacillus subtilis. Description: Antibacterial activity against Bacillus subtilis at 50 ug/well after 24 hr by agar well diffusion method. Type of data set: functional, organism-based.
For a further data set, the system named is Staphylococcus aureus. Description: Antibacterial activity against Staphylococcus aureus at 50 ug/well after 24 hr by agar well diffusion method. Type of data set: functional, organism-based.

Regarding `CC1=C(C(=O)Nc2ccc(Cl)cc2)C(c2cccc(Cl)c2)C(C(=O)Nc2ccc(Cl)cc2)=C(C)N1`, in data set [1], the CC50 at 72 h came to 12 µg/mL (≈ 22.8 µM). Besides, the pCC50 in the data set on Vero turned out to be 1.642. The outcome in the data set with Bacillus subtilis and with Staphylococcus aureus was inactive.

Take `COc1ccc(NC(=O)C2=C(C)N=C(S)NC2c2ccc(O)c(OC)c2)cc1` (stereo not given): the 50% cytotoxic concentration (CC50) at 72 h in data set [1] was determined as 8 µg/mL (≈ 20 µM). Besides, the pCC50 with Vero came to 1.698. Besides, the outcome in the data set on Bacillus subtilis and with Staphylococcus aureus was inactive.

As to `COc1ccc(NC(=O)C2=C(C)NC(=S)NC2c2ccccc2)cc1` (stereo not given), the CC50 at 72 h in data set [1] is 15 µg/mL (≈ 42.4 µM). For the same compound, the pCC50 in the data set with Vero stood at 1.371. Further, the outcome in the data set with Bacillus subtilis and with Staphylococcus aureus was inactive.

`COc1ccc(NC(=O)C2=C(C)NC(=O)NC2c2ccncc2)cc1` (stereo not given): in data set [1], the half-maximal cytotoxic concentration (CC50) at 72 h was 10 µg/mL (≈ 29.6 µM). For the same compound, the pCC50 with Vero was 1.529. In addition, the outcome in the data set on Bacillus subtilis and with Staphylococcus aureus was inactive.

For `CC1=C(C(=O)Nc2ccc(Cl)cc2)C(c2ccc(N(C)C)cc2)C(C(=O)Nc2ccc(Cl)cc2)=C(C)N1`, the CC50 at 72 h in data set [1] came out at 155 µg/mL (≈ 289 µM). The pCC50 with Vero is 0.538. In addition, the result in the data set with Bacillus subtilis and in the data set with Staphylococcus aureus was inactive.

For the compound `CC1=C(C(=O)Nc2ccc(Cl)cc2)C(/C=C/c2ccccc2)C(C(=O)Nc2ccc(Cl)cc2)=C(C)N1`, the CC50 at 72 h in data set [1] turned out to be 21 µg/mL (≈ 40.5 µM). The pCC50 in the data set on Vero is 1.392. The outcome in the data set with Bacillus subtilis and with Staphylococcus aureus was inactive.

`COc1ccc(NC(=O)C2=C(C)NC(=O)NC2c2ccccc2)cc1` (stereo not given): the CC50 at 72 h in data set [1] was 225 µg/mL (≈ 667 µM). Further, the pCC50 in the data set with Vero came out at 0.176. In addition, the result in the data set on Bacillus subtilis and in the data set with Staphylococcus aureus was inactive.

`COc1ccc(NC(=O)C2=C(C)NC(=O)NC2c2cccc([N+](=O)[O-])c2)cc1` (stereo not given): the CC50 at 72 h in data set [1] was 64 µg/mL (≈ 167 µM). The pCC50 in the data set on Vero is recorded as 0.776. In addition, the outcome in the data set with Bacillus subtilis and in the data set with Staphylococcus aureus was inactive.

Turning to `COc1ccc(C2C(C(=O)Nc3ccc(Cl)cc3)=C(C)NC(C)=C2C(=O)Nc2ccc(Cl)cc2)cc1`, the 50% cytotoxic concentration (CC50) at 72 h in data set [1] turned out to be 20 µg/mL (≈ 38.3 µM). In addition, the pCC50 in the data set with Vero came out at 1.42. The outcome in the data set with Bacillus subtilis and with Staphylococcus aureus was inactive.

Consider `COc1ccc(NC(=O)C2=C(C)NC(=O)NC2c2ccccc2O)cc1` (stereo not given), for which, in data set [1], the CC50 at 72 h turned out to be 160 µg/mL (≈ 453 µM). In addition, in the data set on Vero, the pCC50 stood at 0.343. Besides, the result in the data set on Bacillus subtilis and in the data set with Staphylococcus aureus was inactive.

For `CC1=C(C(=O)Nc2ccc(Cl)cc2)CC(C(=O)Nc2ccc(Cl)cc2)=C(C)N1`, the CC50 at 72 h in data set [1] is 40 µg/mL (≈ 96.1 µM). Moreover, in the data set with Vero, the pCC50 worked out at 1.017. Besides, the outcome in the data set with Bacillus subtilis and in the data set on Staphylococcus aureus was inactive.

Turning to `CC1=C(C(=O)Nc2ccc(Cl)cc2)C(c2ccccc2)C(C(=O)Nc2ccc(Cl)cc2)=C(C)N1`, the CC50 at 72 h in data set [1] stood at 15 µg/mL (≈ 30.5 µM). Further, the pCC50 in the data set with Vero worked out at 1.516. Further, the outcome in the data set with Bacillus subtilis and with Staphylococcus aureus was inactive.

With `CC1=C(C(=O)Nc2ccc(Cl)cc2)C(c2ccncc2)C(C(=O)Nc2ccc(Cl)cc2)=C(C)N1`, in data set [1], the CC50 at 72 h came to 78 µg/mL (≈ 158 µM). Besides, in the data set with Vero, the pCC50 came to 0.8. The result in the data set on Bacillus subtilis and in the data set on Staphylococcus aureus was inactive.

With `COc1ccc(NC(=O)C2=C(C)NC(=S)NC2c2ccc(OC)cc2)cc1` (stereo not given), the CC50 at 72 h in data set [1] amounted to 150 µg/mL (≈ 391 µM). Moreover, the pCC50 with Vero is 0.408. Further, the outcome in the data set with Bacillus subtilis and with Staphylococcus aureus was inactive.

On to `COc1ccc(NC(=O)C2=C(C)NC(=O)NC2c2ccc(OC)cc2)cc1` (stereo not given), for which, in data set [1], the 50% cytotoxic concentration (CC50) at 72 h was found to be 158 µg/mL (≈ 430 µM). Further, the pCC50 with Vero stood at 0.367. Further, the outcome in the data set with Bacillus subtilis and with Staphylococcus aureus was inactive.

For the compound `COc1ccc(NC(=O)C2=C(C)NC(=S)NC2c2cccc(Cl)c2)cc1` (stereo not given), the CC50 at 72 h in data set [1] came to 270 µg/mL (≈ 696 µM). In addition, the pCC50 in the data set on Vero worked out at 0.157. The result in the data set on Bacillus subtilis and with Staphylococcus aureus was inactive.

On to `CC1=C(C(=O)Nc2ccc(Cl)cc2)C(c2ccco2)C(C(=O)Nc2ccc(Cl)cc2)=C(C)N1`, for which the CC50 at 72 h in data set [1] came out at 24 µg/mL (≈ 49.8 µM). For the same compound, in the data set on Vero, the pCC50 is recorded as 1.302. The result in the data set with Bacillus subtilis and in the data set with Staphylococcus aureus was inactive.

On to `COc1ccc(NC(=O)C2=C(C)NC(=O)NC2)cc1`, for which the CC50 at 72 h in data set [1] came to 200 µg/mL (≈ 765 µM). Moreover, in the data set with Vero, the pCC50 turned out to be 0.116. In addition, the result in the data set with Bacillus subtilis and in the data set on Staphylococcus aureus was inactive.

Consider `COc1ccc(NC(=O)C2=C(C)NC(=O)NC2c2cccc(Cl)c2)cc1` (stereo not given), for which the CC50 at 72 h in data set [1] was 254 µg/mL (≈ 683 µM). Further, the pCC50 with Vero came to 0.164. The result in the data set with Bacillus subtilis and in the data set with Staphylococcus aureus was inactive.

Turning to `COc1ccc(NC(=O)C2=C(C)NC(=O)NC2c2ccco2)cc1` (stereo not given), the cytotoxic concentration (CC50) at 72 h in data set [1] worked out at 210 µg/mL (≈ 642 µM). In addition, the pCC50 in the data set with Vero amounted to 0.192. The outcome in the data set on Bacillus subtilis and in the data set with Staphylococcus aureus was inactive.

Turning to `COc1ccc(NC(=O)C2=C(C)NC(=O)NC2c2ccc(N(C)C)cc2)cc1` (stereo not given), the CC50 at 72 h in data set [1] amounted to 236 µg/mL (≈ 620 µM). The pCC50 in the data set on Vero is given as 0.207. Also, the result with Bacillus subtilis and in the data set with Staphylococcus aureus was inactive.

For the compound `COc1ccc(NC(=O)C2=C(C)NC(=S)NC2c2ccc(N(C)C)cc2)cc1` (stereo not given), in data set [1], the CC50 at 72 h came out at 500 µg/mL (≈ 1260 µM). The pCC50 in the data set on Vero is -0.101. Further, the outcome with Bacillus subtilis and in the data set with Staphylococcus aureus was inactive.

In the case of `COc1ccc(NC(=O)C2=C(C)NC(=O)NC2/C=C/c2ccccc2)cc1` (stereo not given), the CC50 at 72 h in data set [1] turned out to be 15 µg/mL (≈ 41.3 µM). Further, the pCC50 with Vero is given as 1.383. The outcome in the data set on Bacillus subtilis and with Staphylococcus aureus was inactive.

For `CC1=C(C(=O)Nc2ccc(Cl)cc2)C(c2ccccc2O)C(C(=O)Nc2ccc(Cl)cc2)=C(C)N1`, the cytotoxic concentration (CC50) at 72 h in data set [1] came out at 62 µg/mL (≈ 122 µM). Further, the pCC50 in the data set on Vero is 0.913. Further, the outcome in the data set on Bacillus subtilis and in the data set on Staphylococcus aureus was inactive.

Turning to `COc1cc(C2C(C(=O)Nc3ccc(Cl)cc3)=C(C)NC(C)=C2C(=O)Nc2ccc(Cl)cc2)ccc1O`, the 50% cytotoxic concentration (CC50) at 72 h in data set [1] is 250 µg/mL (≈ 464 µM). Besides, the pCC50 with Vero was 0.333. Besides, the outcome in the data set with Bacillus subtilis and with Staphylococcus aureus was inactive.

`COc1ccc(NC(=O)C2=C(C)NC(=S)NC2c2cccc([N+](=O)[O-])c2)cc1` (stereo not given): in data set [1], the CC50 at 72 h was 80 µg/mL (≈ 201 µM). In addition, the pCC50 in the data set on Vero is 0.697. Moreover, the result with Bacillus subtilis and in the data set with Staphylococcus aureus was inactive.

Regarding `COc1ccc(NC(=O)C2=C(C)NC(=O)NC2c2ccc(O)c(OC)c2)cc1` (stereo not given), the CC50 at 72 h in data set [1] amounted to 8 µg/mL (≈ 20.9 µM). Moreover, in the data set on Vero, the pCC50 was 1.68. Besides, the outcome with Bacillus subtilis and in the data set with Staphylococcus aureus was inactive.

Regarding `CC1=C(C(=O)Nc2ccc(Cl)cc2)C(c2cccc([N+](=O)[O-])c2)C(C(=O)Nc2ccc(Cl)cc2)=C(C)N1`, the CC50 at 72 h in data set [1] came out at 26 µg/mL (≈ 48.4 µM). Also, the pCC50 in the data set with Vero was 1.315. Besides, the result with Bacillus subtilis and with Staphylococcus aureus was inactive.

On to `COc1ccc(NC(=O)C2=C(C)NC(=S)NC2c2ccco2)cc1` (stereo not given), for which, in data set [1], the CC50 at 72 h was found to be 230 µg/mL (≈ 670 µM). In addition, in the data set on Vero, the negative logarithm of the CC50 (pCC50) stood at 0.173. For the same compound, the outcome with Bacillus subtilis and in the data set with Staphylococcus aureus was inactive.

With `COc1ccc(NC(=O)C2=C(C)NC(=S)NC2c2ccccc2O)cc1` (stereo not given), the CC50 at 72 h in data set [1] was determined as 246 µg/mL (≈ 666 µM). Further, the pCC50 in the data set with Vero was found to be 0.176. For the same compound, the result in the data set on Bacillus subtilis and in the data set on Staphylococcus aureus was inactive.
